Source: US20020172704A1, “Planting method and biodegradable material for preventing pests” (priority 2001, published 2002)
Marks after values point to notes of the source that are not given here.

Tested on: golden apple snail (Pomacea canaliculata (Lamarck))
Assay: Hurting rate and death rate of golden apple snails on SDS-added paper mat round boards on wet paddy soil in Petri dishes
Assay type: in vivo
Details: for Death Rate (%) / Hurting Rate (%): average after three days, paper mat
Description: The glutinous solutions with different SDS densities (100, 500, 1000, 2000, 5000, 7500, and 10000 ppm) are prepared in advance, and the paper mat made by YUEN FOONG YU PAPER MFG Co., Ltd is also cut into many round boards having a diameter of 9 cm.
The test is done by the following steps. At first, each of the round boards is dripped with 2 ml of one of the glutinous solutions respectively. The round boards are dried in an oven at a temperature of 30° C. Then, the soil taken from the paddy field is added with water to simulate the natural environment. Each of the dried SDS-added round boards is bedded on 50 g of the wet soil in a Petri dish respectively. Finally, each of the dishes is added with 10 ml water and put 10 golden apple snails thereon.
Two other groups are prepared for comparison. […] All the three groups are observed in a greenhouse.

[1] = Conc. of SDS solution 100 ppm, snail size 3.28 ± 0.43 g/per snail
[2] = Conc. of SDS solution 500 ppm, snail size 3.28 ± 0.43 g/per snail
[3] = Conc. of SDS solution 1000 ppm, snail size 3.28 ± 0.43 g/per snail
[4] = Conc. of SDS solution 2500 ppm, snail size 0.82 ± 0.26 g/per snail
[5] = Conc. of SDS solution 5000 ppm, snail size 0.82 ± 0.26 g/per snail
[6] = Conc. of SDS solution 7500 ppm, snail size 0.82 ± 0.26 g/per snail
[7] = Conc. of SDS solution 10000 ppm, snail size 0.82 ± 0.26 g/per snail

SMILES: CCCCCCCCCCCCOS(=O)(=O)[O-].[Na+] [SDS, sodium dodecyl sulfate]
- Death Rate (%) [1]: 0.00%
- Hurting Rate (%) [1]: 3.33* %
- Death Rate (%) [2]: 3.33%
- Hurting Rate (%) [2]: 6.67%
- Death Rate (%) [3]: 10.00%
- Hurting Rate (%) [3]: 23.33%
- Death Rate (%) (Conc. of SDS solution 2000 ppm, snail size 3.28 ± 0.43 g/per snail): 10.00%
- Death Rate (%) [4]: 100.00%
- Hurting Rate (%) [4]: 100.00* %
- Death Rate (%) [5]: 100.00%
- Hurting Rate (%) [5]: 100.00%
- Death Rate (%) [6]: 100.00%
- Hurting Rate (%) [6]: 100.00%
- Death Rate (%) [7]: 100.00%
- Hurting Rate (%) [7]: 100.00%
- hurting rate (smaller snails, SDS concentrations above 2500 ppm (summary of Table 2)): ~100.00%
